Where two headings read alike, the source gives them in different places. Numbered stars: 1 amine (or outer) side, 2 acyl side, 3 side chain; on linkers, the order of the positions; unused ones are H or OH. Bridge positions count the residues as written; N and C are the ends. Square brackets hold non-standard residues; d marks the D form. Peptide text beside a SMILES is read from it. * marks the point of attachment. C20 diacid = O=C(O)CCCCCCCCCCCCCCCCCCC(=O)*; γGlu = O=C(O)[C@H](CCC(=O)[*:2])N[*:1]; NMeI = CC[C@H](C)[C@H](NC)C(=O)O; Sar = CNCC(=O)O
What was measured:
[1] = Assessment of physical stability: fibril formation detected with Thioflavin T (ThT), lag-time; type: physicochemical; conditions: 1 mg/ml peptide, 40 µM ThT, FND = Fibrillation not detected; for Fibrillation lag time (hours) pH 4.0 (Ac): 50 mM acetate buffer pH 4.0, 96 hours at 40°C; for Fibrillation lag time (hours) pH 7.0 (His): 50 mM histidine buffer pH 7.0, 96 hours at 40°C; for Fibrillation lag time (hours) pH 7.0 (Ph): 50 mM phosphate buffer pH 7.0, 96 hours at 40°C
Method in brief: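 Test peptide at 1 mg/ml with 40 µM ThT in 50 mM phosphate (pH 7.0), 50 mM histidine (pH 7.0) or 50 mM acetate (pH 4.0), in triplicate, 40° C. for 96 h. Fluorescence read every 10 min after 300 s agitation. Lag-time (h) taken as intersection of linear fits to initial stable and growth phases.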

[2] = molecular target: T1, human amylin receptor 3 (hAMYR3) consisting of hCTR2 co-expressed with human Receptor Activity Modifying Protein 3 (hRAMP3) (Homo sapiens, UniProt O60896+P30988); assay: hAMYR3 assay: induction of cAMP (AlphaScreen cAMP Assay kit) in COS7 cells expressing hAMYR3; type: cell-based
T1 construct: expressed in transfected cells
T1 sequence (P30988 25-474): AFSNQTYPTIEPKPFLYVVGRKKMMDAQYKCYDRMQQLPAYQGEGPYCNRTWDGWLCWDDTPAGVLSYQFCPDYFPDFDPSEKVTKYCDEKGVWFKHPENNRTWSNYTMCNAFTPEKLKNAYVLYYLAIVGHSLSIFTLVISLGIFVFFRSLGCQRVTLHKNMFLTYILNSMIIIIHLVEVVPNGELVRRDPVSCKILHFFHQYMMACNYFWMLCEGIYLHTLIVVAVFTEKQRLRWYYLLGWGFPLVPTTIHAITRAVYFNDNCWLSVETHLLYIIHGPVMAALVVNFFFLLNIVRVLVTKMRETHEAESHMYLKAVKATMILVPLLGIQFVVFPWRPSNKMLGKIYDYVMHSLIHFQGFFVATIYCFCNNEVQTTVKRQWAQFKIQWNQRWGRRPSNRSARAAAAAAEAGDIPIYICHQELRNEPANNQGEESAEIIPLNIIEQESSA
T1 sequence (O60896 24-148 partner): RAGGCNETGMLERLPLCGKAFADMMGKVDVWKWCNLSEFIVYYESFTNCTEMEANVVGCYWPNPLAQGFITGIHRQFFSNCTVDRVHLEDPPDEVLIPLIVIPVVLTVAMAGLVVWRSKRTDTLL
Method in brief: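 Stable COS7 clone co-expressing hCTR2 and hRAMP3, stimulated 15 min at 37° C with increasing peptide in Tyrode buffer pH 7.4 with 100 µM IBMX and 0.1% casein. cAMP measured by AlphaScreen after lysis; EC50 and % efficacy versus pramlintide from 4PL fit.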

[3] = cAMP induction in COS7 cells expressing hAMYR3, average of a minimum of 3 determinations, read-out: hAMY R3 EC50

Fibrillation lag time (hours) pH 4.0 (Ac) [1]	Fibrillation lag time (hours) pH 7.0 (His) [1]	Fibrillation lag time (hours) pH 7.0 (Ph) [1]	EC50 [2, 3] [nM]	Structure (SMILES)	EC50 [2] [nM]
FND	FND	FND	0.14	CC[C@H](C)[C@@H](C(=O)N[C@@H](CC(C)C)C(=O)N[C@@H](CO)C(=O)N[C@@H](CO)C(=O)N[C@H](C(=O)N[C@@H](CC(=O)O)C(=O)N[C@H](C(=O)NCC(=O)N[C@@H](CO)C(=O)N[C@@H](CC(=O)O)C(=O)N[C@H](C(=O)N1CCC[C@H]1C(N)=O)[C@@H](C)O)C(C)C)[C@@H](C)O)N(C)C(=O)[C@H](C)NC(=O)CN(C)C(=O)[C@H](Cc1ccccc1)NC(=O)[C@H](CO)NC(=O)[C@H](CO)NC(=O)[C@H](CO)NC(=O)[C@H](CO)NC(=O)[C@H](CCCNC(=N)N)NC(=O)[C@H](Cc1c[nH]cn1)NC(=O)[C@H](CC(C)C)NC(=O)[C@H](Cc1ccccc1)NC(=O)[C@H](CCC(=O)O)NC(=O)[C@H](C)NC(=O)[C@H](CC(C)C)NC(=O)[C@H](CCCNC(=N)N)NC(=O)[C@H](CCC(N)=O)NC(=O)[C@@H](NC(=O)[C@H](C)NC(=O)[C@@H]1CSSC[C@H](NC(=O)[C@H](CCCNC(=N)N)NC(=O)CC[C@H](NC(=O)CCCCCCCCCCCCCCCCCCC(=O)O)C(=O)O)C(=O)N[C@@H](CC(N)=O)C(=O)N[C@@H]([C@@H](C)O)C(=O)N[C@@H](C)C(=O)N[C@@H]([C@@H](C)O)C(=O)N1)[C@@H](C)O [Compound 73, [19CD]-isoGlu-RC()NTATC()ATQRLAEFLHRSSSSF-Gly(Me)-A-Ile(Me)-LSSTDVGSDTP-NH2] ({C20 diacid-γGlu}-RCNTATCATQRLAEFLHRSSSSF[Sar]A[NMeI]LSSTDVGSDTP-NH2; disulfide 2-7)	–
FND	FND	FND	0.24	CC[C@H](C)[C@@H](C(=O)N[C@@H](CC(C)C)C(=O)N[C@@H](CO)C(=O)N[C@@H](CO)C(=O)N[C@H](C(=O)N[C@@H](CCC(=O)O)C(=O)N[C@H](C(=O)NCC(=O)N[C@@H](CO)C(=O)N[C@@H](CCC(=O)O)C(=O)N[C@H](C(=O)N1CCC[C@H]1C(N)=O)[C@@H](C)O)C(C)C)[C@@H](C)O)N(C)C(=O)[C@H](C)NC(=O)CN(C)C(=O)[C@H](Cc1ccccc1)NC(=O)[C@H](CO)NC(=O)[C@H](CO)NC(=O)[C@H](CO)NC(=O)[C@H](CO)NC(=O)[C@H](CCCNC(=N)N)NC(=O)[C@H](Cc1c[nH]cn1)NC(=O)[C@H](CC(C)C)NC(=O)[C@H](Cc1ccccc1)NC(=O)[C@H](CCC(=O)O)NC(=O)[C@H](C)NC(=O)[C@H](CC(C)C)NC(=O)[C@H](CCCNC(=N)N)NC(=O)[C@H](CCC(N)=O)NC(=O)[C@@H](NC(=O)[C@H](C)NC(=O)[C@@H]1CSSC[C@H](NC(=O)[C@H](CCCNC(=N)N)NC(=O)CC[C@H](NC(=O)CCCCCCCCCCCCCCCCCCC(=O)O)C(=O)O)C(=O)N[C@@H](CC(N)=O)C(=O)N[C@@H]([C@@H](C)O)C(=O)N[C@@H](C)C(=O)N[C@@H]([C@@H](C)O)C(=O)N1)[C@@H](C)O [Compound 76, [19CD]-isoGlu-RC()NTATC()ATQRLAEFLHRSSSSF-Gly(Me)-A-Ile(Me)-LSSTEVGSETP-NH2] ({C20 diacid-γGlu}-RCNTATCATQRLAEFLHRSSSSF[Sar]A[NMeI]LSSTEVGSETP-NH2; disulfide 2-7)	–
–	–	–	0.17	CC[C@H](C)[C@@H](C(=O)N[C@@H](CC(C)C)C(=O)N1CCC[C@H]1C(=O)N1CCC[C@H]1C(=O)N[C@H](C(=O)N[C@@H](CC(N)=O)C(=O)N[C@H](C(=O)NCC(=O)N[C@@H](CO)C(=O)N[C@@H](CC(N)=O)C(=O)N[C@H](C(=O)N1CCC[C@H]1C(N)=O)[C@@H](C)O)C(C)C)[C@@H](C)O)N(C)C(=O)CN(C)C(=O)[C@H](Cc1ccccc1)NC(=O)[C@H](CC(N)=O)NC(=O)[C@H](CC(N)=O)NC(=O)[C@H](CO)NC(=O)[C@H](CO)NC(=O)[C@H](Cc1c[nH]cn1)NC(=O)[C@H](Cc1c[nH]cn1)NC(=O)[C@H](CC(C)C)NC(=O)[C@H](Cc1ccccc1)NC(=O)[C@H](CCC(=O)O)NC(=O)[C@H](C)NC(=O)[C@H](CC(C)C)NC(=O)[C@H](CCCNC(=N)N)NC(=O)[C@H](CCC(N)=O)NC(=O)[C@@H](NC(=O)[C@H](C)NC(=O)[C@@H]1CSSC[C@H](NC(=O)[C@H](CCCNC(=N)N)NC(=O)CC[C@H](NC(=O)CCCCCCCCCCCCCCCCCCC(=O)O)C(=O)O)C(=O)N[C@@H](CC(N)=O)C(=O)N[C@@H]([C@@H](C)O)C(=O)N[C@@H](C)C(=O)N[C@@H]([C@@H](C)O)C(=O)N1)[C@@H](C)O [Compound 176, [19CD]-isoGlu-RC()NTATC()ATQRLAEFLHHSSNNF-Gly(Me)-Ile(Me)-LPPTNVGSNTP-NH2] ({C20 diacid-γGlu}-RCNTATCATQRLAEFLHHSSNNF[Sar][NMeI]LPPTNVGSNTP-NH2; disulfide 2-7)	–
–	–	–	–	CC[C@H](C)[C@H](NC(=O)[C@@H]1CCCN1C(=O)CNC(=O)[C@H](Cc1ccccc1)NC(=O)[C@H](CC(N)=O)NC(=O)[C@H](CC(N)=O)NC(=O)[C@H](CO)NC(=O)[C@H](CO)NC(=O)[C@H](Cc1c[nH]cn1)NC(=O)[C@H](Cc1c[nH]cn1)NC(=O)[C@H](CC(C)C)NC(=O)[C@H](Cc1ccccc1)NC(=O)[C@H](CCC(=O)O)NC(=O)[C@H](C)NC(=O)[C@H](CC(C)C)NC(=O)[C@H](CCCNC(=N)N)NC(=O)[C@H](CCC(N)=O)NC(=O)[C@@H](NC(=O)[C@H](C)NC(=O)[C@@H]1CSSC[C@H](NC(=O)[C@H](CCCNC(=N)N)NC(=O)CC[C@H](NC(=O)CCCCCCCCCCCCCCCCCCC(=O)O)C(=O)O)C(=O)N[C@@H](CC(N)=O)C(=O)N[C@@H]([C@@H](C)O)C(=O)N[C@@H](C)C(=O)N[C@@H]([C@@H](C)O)C(=O)N1)[C@@H](C)O)C(=O)N[C@@H](CC(C)C)C(=O)N1CCC[C@H]1C(=O)N1CCC[C@H]1C(=O)N[C@H](C(=O)N[C@@H](CC(N)=O)C(=O)N[C@H](C(=O)NCC(=O)N[C@@H](CO)C(=O)N[C@@H](CC(N)=O)C(=O)N[C@H](C(=O)N1CCC[C@H]1C(N)=O)[C@@H](C)O)C(C)C)[C@@H](C)O [NN96, N-α-[(S)-4-carboxy-4-(19-carboxynonadecanoylamino)butyryl]-[Arg1,Glu14,His17,Pro37]-pramlintide, reference compound] ({C20 diacid-γGlu}-RCNTATCATQRLAEFLHHSSNNFGPILPPTNVGSNTP-NH2; disulfide 2-7)	0.15

Structure (SMILES)	Fibrillation lag time (hours) pH 4.0 (Ac) [1]	Fibrillation lag time (hours) pH 7.0 (His) [1]	Fibrillation lag time (hours) pH 7.0 (Ph) [1]	EC50 [2, 3] [nM]	EC50 [2] [nM]
CC[C@H](C)[C@@H](C(=O)N[C@@H](CC(C)C)C(=O)N[C@@H](CO)C(=O)N[C@@H](CO)C(=O)N[C@H](C(=O)N[C@@H](CC(N)=O)C(=O)N[C@H](C(=O)NCC(=O)N[C@@H](CO)C(=O)N[C@@H](CC(N)=O)C(=O)N[C@H](C(=O)N1CCC[C@H]1C(N)=O)[C@@H](C)O)C(C)C)[C@@H](C)O)N(C)C(=O)[C@H](C)NC(=O)CN(C)C(=O)[C@H](Cc1ccccc1)NC(=O)[C@H](CC(N)=O)NC(=O)[C@H](CC(N)=O)NC(=O)[C@H](CO)NC(=O)[C@H](CO)NC(=O)[C@H](CCCNC(=N)N)NC(=O)[C@H](Cc1c[nH]cn1)NC(=O)[C@H](CC(C)C)NC(=O)[C@H](Cc1ccccc1)NC(=O)[C@H](CCC(=O)O)NC(=O)[C@H](C)NC(=O)[C@H](CC(C)C)NC(=O)[C@H](CCCNC(=N)N)NC(=O)[C@H](CCC(N)=O)NC(=O)[C@@H](NC(=O)[C@H](C)NC(=O)[C@@H]1CSSC[C@H](NC(=O)[C@H](CCCNC(=N)N)NC(=O)CC[C@H](NC(=O)CCCCCCCCCCCCCCCCCCC(=O)O)C(=O)O)C(=O)N[C@@H](CC(N)=O)C(=O)N[C@@H]([C@@H](C)O)C(=O)N[C@@H](C)C(=O)N[C@@H]([C@@H](C)O)C(=O)N1)[C@@H](C)O [Compound 18, [19CD]-isoGlu-RC()NTATC()ATQRLAEFLHRSSNNF-Gly(Me)-A-Ile(Me)-LSSTNVGSNTP-NH2] ({C20 diacid-γGlu}-RCNTATCATQRLAEFLHRSSNNF[Sar]A[NMeI]LSSTNVGSNTP-NH2; disulfide 2-7)	20 hours	33 hours	33 hours	–	0.17

Source: EP3046573B1, “AMYLIN ANALOGUES” (Zealand Pharma A/S, priority 2013, dated 2015)
